Data: US8802597B2, “Herbicidal pyrimidines” (E I du Pont de Nemours and Company, priority 2003, dated 2014)
Where two headings read alike, the source gives them in different places.

Experiments:
Experiment in all cases: Test C pre/postemergence
Format in all cases: in vivo
[1] = tested on: Surinam grass (Brachiaria decumbens); details: Urochloa decumbens; for pest or weed control at 125 g/ha: 125 g ai/ha; for pest or weed control at 31 g/ha: 31 g ai/ha; for pest or weed control at 62 g/ha: 62 g ai/ha; for pest or weed control at 250 g/ha: 250 g ai/ha
Procedure, shortened: (§1)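 Applications: preemergence onto seeded soil and postemergence onto 1- to 4-leaf seedlings, compound carried in non-phytotoxic solvent plus surfactant. Kept in greenhouse 12 to 14 days. Scored visually relative to untreated controls, 0 (no effect) to 100 (complete control).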

[2] = tested on: woolly cupgrass (Eriochloa villosa); details: Eriochloa villosa; for pest or weed control at 31 g/ha: 31 g ai/ha; for pest or weed control at 62 g/ha: 62 g ai/ha; for pest or weed control at 125 g/ha: 125 g ai/ha; for pest or weed control at 250 g/ha: 250 g ai/ha
Procedure, shortened: as §1

[3] = tested on: common (oilseed) sunflower (Helianthus annuus); details: Helianthus annuus, pre-emergence, Preemergence, read-out: Plant response rating, Sunflower
Procedure, shortened: as §1

kochia (Kochia scoparia) = details: Bassia scoparia; for pest or weed control at 31 g/ha: 31 g ai/ha; for pest or weed control at 62 g/ha: 62 g ai/ha; for pest or weed control at 125 g/ha: 125 g ai/ha; for pest or weed control at 250 g/ha: 250 g ai/ha
Procedure, shortened: as §1

[4] = tested on: goosegrass (Eleusine indica); details: Eleusine indica; for pest or weed control at 31 g/ha: 31 g ai/ha; for pest or weed control at 62 g/ha: 62 g ai/ha; for pest or weed control at 125 g/ha: 125 g ai/ha; for pest or weed control at 250 g/ha: 250 g ai/ha
Procedure, shortened: as §1

soybean (Glycine max) = details: Glycine max; for plant injury at 31 g/ha: 31 g ai/ha; for plant injury at 62 g/ha: 62 g ai/ha; for plant injury at 125 g/ha: 125 g ai/ha; for plant injury at 250 g/ha: 250 g ai/ha
Procedure, shortened: as §1

[5] = tested on: pigweed (Amaranthus retroflexus); details: Amaranthus retroflexus, post-emergence, Postemergence
Procedure, shortened: as §1

[6] = post-emergence, Postemergence, scale 0 to 100 (0 no effect, 100 complete control), read-out: Surinam Grass plant response rating
[7] = pre-emergence, Preemergence, scale 0 to 100, 0 no effect, 100 complete control, read-out: Plant response rating, Surinam Grass
[8] = pre-emergence, Preemergence, scale 0 to 100, read-out: Plant response rating, Surinam Grass
[9] = post-emergence, Postemergence, scale 0 to 100 (0 no effect, 100 complete control), read-out: Cupgrass, Woolly plant response rating
[10] = pre-emergence, Preemergence, scale 0 to 100, 0 no effect, 100 complete control, read-out: Plant response rating, Cupgrass, Woolly
[11] = pre-emergence, Preemergence, scale 0 to 100, read-out: Plant response rating, Cupgrass, Woolly
[12] = post-emergence, Postemergence, scale 0 to 100 (0 no effect, 100 complete control), read-out: Kochia plant response rating
[13] = pre-emergence, Preemergence, scale 0 to 100, 0 no effect, 100 complete control, read-out: Plant response rating, Kochia
[14] = pre-emergence, Preemergence, scale 0 to 100, read-out: Plant response rating, Kochia
[15] = post-emergence, Postemergence, scale 0 to 100 (0 no effect, 100 complete control), read-out: Goosegrass plant response rating
[16] = pre-emergence, Preemergence, scale 0 to 100, 0 no effect, 100 complete control, read-out: Plant response rating, Goosegrass
[17] = pre-emergence, Preemergence, scale 0 to 100, read-out: Plant response rating, Goosegrass
[18] = post-emergence, Postemergence, scale 0 to 100 (0 no effect, 100 complete control), read-out: Soybean plant response rating
[19] = pre-emergence, Preemergence, scale 0 to 100, 0 no effect, 100 complete control, read-out: Plant response rating, Soybean
[20] = pre-emergence, Preemergence, scale 0 to 100, read-out: Plant response rating, Soybean

Structure (SMILES): COC(=O)c1nc(C2CC2)nc(N)c1Br [Compound 2, methyl 6-amino-5-bromo-2-cyclopropyl-4-pyrimidinecarboxylate]
- pest or weed control at 125 g/ha [1, 6]: 65%
- pest or weed control at 31 g/ha ([1]; post-emergence, Postemergence, read-out: Plant response rating (scale of 0 to 100), Surinam Grass): 0%
- pest or weed control at 62 g/ha [1, 6]: 55%
- pest or weed control at 250 g/ha ([1]; post-emergence, Postemergence, scale 0 to 100, read-out: Plant response rating, Surinam Grass): 70%
- pest or weed control at 31 g/ha [1, 7]: 0%
- pest or weed control at 62 g/ha [1, 7]: 0%
- pest or weed control at 125 g/ha [1, 8]: 0%
- pest or weed control at 250 g/ha [1, 8]: 0%
- pest or weed control at 31 g/ha ([2]; post-emergence, Postemergence, read-out: Plant response rating (scale of 0 to 100), Cupgrass, Woolly): 40%
- pest or weed control at 62 g/ha [2, 9]: 60%
- pest or weed control at 125 g/ha [2, 9]: 70%
- pest or weed control at 250 g/ha ([2]; post-emergence, Postemergence, scale 0 to 100, read-out: Plant response rating, Cupgrass, Woolly): 75%
- pest or weed control at 31 g/ha [2, 10]: 0%
- pest or weed control at 62 g/ha [2, 10]: 0%
- pest or weed control at 125 g/ha [2, 11]: 0%
- pest or weed control at 250 g/ha [2, 11]: 45%
- pest or weed control at 31 g/ha ([3]; 31 g ai/ha, scale 0 to 100, 0 no effect, 100 complete control): 20%
- pest or weed control at 62 g/ha ([3]; 62 g ai/ha, scale 0 to 100, 0 no effect, 100 complete control): 100%
- pest or weed control at 125 g/ha ([3]; 125 g ai/ha, scale 0 to 100): 100%
- pest or weed control at 250 g/ha ([3]; 250 g ai/ha, scale 0 to 100): 100%
- pest or weed control at 31 g/ha (kochia (Kochia scoparia); post-emergence, Postemergence, read-out: Plant response rating (scale of 0 to 100), Kochia): 85%
- pest or weed control at 62 g/ha (kochia (Kochia scoparia); [12]): 95%
- pest or weed control at 125 g/ha (kochia (Kochia scoparia); [12]): 95%
- pest or weed control at 250 g/ha (kochia (Kochia scoparia); post-emergence, Postemergence, scale 0 to 100, read-out: Plant response rating, Kochia): 100%
- pest or weed control at 31 g/ha (kochia (Kochia scoparia); [13]): 75%
- pest or weed control at 62 g/ha (kochia (Kochia scoparia); [13]): 90%
- pest or weed control at 125 g/ha (kochia (Kochia scoparia); [14]): 95%
- pest or weed control at 250 g/ha (kochia (Kochia scoparia); [14]): 100%
- pest or weed control at 31 g/ha ([4]; post-emergence, Postemergence, read-out: Plant response rating (scale of 0 to 100), Goosegrass): 0%
- pest or weed control at 62 g/ha [4, 15]: 0%
- pest or weed control at 125 g/ha [4, 15]: 0%
- pest or weed control at 250 g/ha ([4]; post-emergence, Postemergence, scale 0 to 100, read-out: Plant response rating, Goosegrass): 45%
- pest or weed control at 31 g/ha [4, 16]: 0%
- pest or weed control at 62 g/ha [4, 16]: 0%
- pest or weed control at 125 g/ha [4, 17]: 0%
- pest or weed control at 250 g/ha [4, 17]: 60%
- plant injury at 31 g/ha (soybean (Glycine max); post-emergence, Postemergence, read-out: Plant response rating (scale of 0 to 100), Soybean): 100%
- plant injury at 62 g/ha (soybean (Glycine max); [18]): 100%
- plant injury at 125 g/ha (soybean (Glycine max); [18]): 100%
- plant injury at 250 g/ha (soybean (Glycine max); post-emergence, Postemergence, scale 0 to 100, read-out: Plant response rating, Soybean): 100%
- plant injury at 31 g/ha (soybean (Glycine max); [19]): 15%
- plant injury at 62 g/ha (soybean (Glycine max); [19]): 75%
- plant injury at 125 g/ha (soybean (Glycine max); [20]): 90%
- plant injury at 250 g/ha (soybean (Glycine max); [20]): 100%
- pest or weed control at 31 g/ha ([5]; 31 g ai/ha, read-out: Plant response rating (scale of 0 to 100), Pigweed): 65%
- pest or weed control at 62 g/ha ([5]; 62 g ai/ha, scale 0 to 100 (0 no effect, 100 complete control), read-out: Pigweed plant response rating): 80%
